Literature values in article PMC6363533 (Biochemistry, 2018).

Target: antithrombin
Details: read-out: Kd of TNS binding to antithrombin; cited from earlier work

## Cc1ccc(Nc2ccc3cc(S(=O)(=O)O)ccc3c2)cc1 [TNS, 2-p-toluidinylnaphthalene-6-sulfonate]
  Kd: > 10 µM
